The test deals with T1, F508del (Homo sapiens, UniProt P13569, DEL508-508).
T1 construct: expressed in transfected cells
The test is described as follows: Protocol 2: FRET membrane potential optical assay (VIPR), identification of correction compounds. In kind it is cell-based. A digest of the protocol:
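NIH3T3 mouse fibroblasts stably expressing F508del-CFTR incubated with compound 16 h at 37 °C in serum-free medium, then loaded with CC2-DMPE/DiSBAC2(3) FRET dyes. Channel activated with 10 μM forskolin plus 20 μM genistein in Cl⁻-free (gluconate) bath; depolarisation from Cl⁻ efflux read on VIPR II.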

Setting [1] is: F508del CFTR modulator activity, compounds of Table 1, read-out: EC30.
[2] abbreviates: Table 3, compounds of Table 1 as modulators of CFTR activity, protocol not stated.

The structures appear in SMILES notation. Like-named read-outs stand apart in the source and are kept apart here.

T1 sequence (P13569 with tags, fused parts or gaps DEL508-508): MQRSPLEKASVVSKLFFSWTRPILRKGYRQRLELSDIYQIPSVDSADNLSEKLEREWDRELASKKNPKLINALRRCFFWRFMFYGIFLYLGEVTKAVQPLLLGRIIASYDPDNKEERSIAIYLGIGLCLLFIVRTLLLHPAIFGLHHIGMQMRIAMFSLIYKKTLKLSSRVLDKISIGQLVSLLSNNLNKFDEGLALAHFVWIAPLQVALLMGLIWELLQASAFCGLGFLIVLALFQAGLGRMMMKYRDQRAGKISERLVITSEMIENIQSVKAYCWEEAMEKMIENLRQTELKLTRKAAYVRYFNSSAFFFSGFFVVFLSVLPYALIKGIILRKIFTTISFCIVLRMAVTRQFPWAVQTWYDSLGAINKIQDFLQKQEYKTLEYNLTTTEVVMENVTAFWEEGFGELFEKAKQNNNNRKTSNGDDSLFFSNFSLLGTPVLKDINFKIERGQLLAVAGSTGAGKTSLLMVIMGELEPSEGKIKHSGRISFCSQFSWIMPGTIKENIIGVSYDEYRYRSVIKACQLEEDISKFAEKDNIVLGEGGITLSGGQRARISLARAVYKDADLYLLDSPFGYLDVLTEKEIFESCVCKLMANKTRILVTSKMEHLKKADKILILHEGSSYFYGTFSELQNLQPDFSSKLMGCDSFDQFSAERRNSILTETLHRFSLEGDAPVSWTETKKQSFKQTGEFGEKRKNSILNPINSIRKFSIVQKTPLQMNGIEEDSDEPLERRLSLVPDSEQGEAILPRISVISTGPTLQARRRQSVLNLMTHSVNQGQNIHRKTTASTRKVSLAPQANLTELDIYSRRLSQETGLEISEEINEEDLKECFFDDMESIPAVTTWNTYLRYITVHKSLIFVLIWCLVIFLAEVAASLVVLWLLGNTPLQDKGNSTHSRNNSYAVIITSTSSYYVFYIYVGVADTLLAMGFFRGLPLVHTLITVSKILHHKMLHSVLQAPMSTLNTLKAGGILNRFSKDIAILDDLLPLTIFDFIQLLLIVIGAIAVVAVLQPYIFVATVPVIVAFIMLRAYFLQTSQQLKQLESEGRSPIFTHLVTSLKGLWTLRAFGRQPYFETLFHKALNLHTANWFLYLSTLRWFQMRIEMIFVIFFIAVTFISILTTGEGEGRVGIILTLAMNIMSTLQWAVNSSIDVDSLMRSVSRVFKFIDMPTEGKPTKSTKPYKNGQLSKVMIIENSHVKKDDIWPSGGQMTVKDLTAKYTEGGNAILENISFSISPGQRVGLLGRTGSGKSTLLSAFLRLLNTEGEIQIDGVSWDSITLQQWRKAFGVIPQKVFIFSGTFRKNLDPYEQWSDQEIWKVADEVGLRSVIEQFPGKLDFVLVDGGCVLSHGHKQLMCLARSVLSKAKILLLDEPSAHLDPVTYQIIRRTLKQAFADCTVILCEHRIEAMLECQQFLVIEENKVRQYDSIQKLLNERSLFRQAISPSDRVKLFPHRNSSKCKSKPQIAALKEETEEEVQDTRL

On to `CC1CN(c2ncccc2C(=O)NS(=O)(=O)c2cccc(OCCc3ccsc3)n2)C(C)(C)C1` (stereo not shown) [Compound 2161, N—[[6-[2-(3-thienyl)ethoxy]-2-pyridyl]sulfonyl]-2-(2,2,4-trimethylpyrrolidin-1-yl)pyridine-3-carboxamide], for which the EC30 under setting [1] was below 3 µM. Consider `CC(C)Oc1ccc(-c2ccc(C(=O)NS(=O)(=O)c3cccc(N)n3)c(N3CCC(C)C3(C)C)n2)cn1` (stereo not shown) [Compound 464, N-[(6-amino-2-pyridyl)sulfonyl]-6-(6-isopropoxy-3-pyridyl)-2-(2,2,3-trimethylpyrrolidin-1-yl)pyridine-3-carboxamide], for which the EC30 result under setting [2] is reported as “+++ (“+++” means <3 uM)”. On the same count and under the same terms, the entry for `Cc1cccc(C)c1Cn1nc(-c2ccccc2OC(F)(F)F)cc1C(=O)NS(=O)(=O)c1ccccc1` [Compound 149, N-(benzenesulfonyl)-2-[(2,6-dimethylphenyl)methyl]-5-[2-(trifluoromethoxy)phenyl]pyrazole-3-carboxamide] is “+++ (“+++” means <3 uM)”. On the same count and under the same terms, in the case of `Cc1ccc(Oc2nc(C(C)(C)C)ccc2C(=O)NS(=O)(=O)c2cccc(N)c2)c(C)c1` [Compound 251, N-(3-aminophenyl)sulfonyl-6-tert-butyl-2-(2,4-dimethylphenoxy)pyridine-3-carboxamide] it was “+++ (“+++” means <3 uM)”.

On to `CC(C)COc1cc(F)cc(-c2ccc(C(=O)NS(=O)(=O)c3cccc(N)n3)c(N3CC(F)(F)CC3(C)C)n2)c1` [Compound 2631, N-[(6-amino-2-pyridyl)sulfonyl]-2-(4,4-difluoro-2,2-dimethyl-pyrrolidin-1-yl)-6-(3-fluoro-5-isobutoxy-phenyl)pyridine-3-carboxamide], for which the EC30 under setting [1] was below 3 µM. Regarding `COc1ccc2c(c1)CN(Cc1c(C)cc(C)cc1C)C2(C)C(=O)NS(=O)(=O)c1cccc(N)n1` (stereo not shown) [Compound 406, N-[(6-amino-2-pyridyl)sulfonyl]-5-methoxy-1-methyl-2-[(2,4,6-trimethylphenyl)methyl]isoindoline-1-carboxamide], the 30% effect concentration (EC30) result under setting [2] is given as “+++ (“+++” means <3 uM)”.

`Cc1cc(C)c(CN2Cc3ccccc3C2C(=O)NS(=O)(=O)c2ccccc2)c(C)c1` (stereo not shown) [Compound 6, N-(benzenesulfonyl)-2-[(2,4,6-trimethylphenyl)methyl]isoindoline-1-carboxamide]: the EC30 entry under setting [2] was “+++ (“+++” means <3 uM)”.

As for `CC(C)COc1cc(F)cc(-c2ccc(C(=O)NS(=O)(=O)c3cccc(N)n3)c(N3CCCCCC3)n2)c1` [Compound 418, N-[(6-amino-2-pyridyl)sulfonyl]-2-(azepan-1-yl)-6-(3-fluoro-5-isobutoxy-phenyl)pyridine-3-carboxamide], the EC30 entry under setting [2] was “+++ (“+++” means <3 uM)”. As for `COc1cccc(Oc2cccc(S(=O)(=O)NC(=O)c3cccnc3N3CC(C)CC3(C)C)n2)c1` (stereo not shown) [Compound 2551, N—[[6-(3-methoxyphenoxy)-2-pyridyl]sulfonyl]-2-(2,2,4-trimethylpyrrolidin-1-yl)pyridine-3-carboxamide], the EC30 under setting [1] was below 3 µM. Still for that read-out and setting: in the case of `CC(C)COc1cc(F)cc(-c2nc(N3C[C@@H](C)CC3(C)C)cnc2C(=O)NS(=O)(=O)c2cccc(N)n2)c1` [Compound 2673, N-[(6-amino-2-pyridyl)sulfonyl]-3-(3-fluoro-5-isobutoxy-phenyl)-5-[(4S)-2,2,4-trimethylpyrrolidin-1-yl]pyrazine-2-carboxamide] it was below 3 µM; in that of `C[C@@H]1CN(c2nc(-c3ccc(C(F)(F)F)cc3)ccc2C(=O)NS(=O)(=O)c2cccc(N)n2)C(C)(C)C1` [Compound 2296, N-[(6-amino-2-pyridyl)sulfonyl]-6-[4-(trifluoromethyl)phenyl]-2-[(4S)-2,2,4-trimethylpyrrolidin-1-yl]pyridine-3-carboxamide], below 3 µM.

As for `COc1ccc2c(c1)cc(C(=O)NS(=O)(=O)c1cccc(N)c1)n2Cc1c(C)cc(C)cc1C` [Compound 336, N-(3-aminophenyl)sulfonyl-5-methoxy-1-[(2,4,6-trimethylphenyl)methyl]indole-2-carboxamide], the EC30 result under setting [2] is on record as “+++ (“+++” means <3 uM)”. Still for that read-out and setting: the entry for `Cc1cc(C)c(CN2C[C@H](c3ccccc3)C[C@@H]2C(=O)NS(=O)(=O)c2cccc(N)n2)c(C)c1` [Compound 467, (2R,4S)—N-[(6-amino-2-pyridyl)sulfonyl]-4-phenyl-1-[(2,4,6-trimethylphenyl)methyl]pyrrolidine-2-carboxamide] is “++ (“++” means between 3 uM and 10 uM)”; for `CC(C)COc1cc(F)cc(-c2ccc(C(=O)NS(=O)(=O)c3cccc(N)n3)c(N3CCCC3c3ccccn3)n2)c1` (stereo not shown) [Compound 659, N-[(6-amino-2-pyridyl)sulfonyl]-6-(3-fluoro-5-isobutoxy-phenyl)-2-[2-(2-pyridyl)pyrrolidin-1-yl]pyridine-3-carboxamide] it is “++ (“++” means between 3 uM and 10 uM)”. With `CC(C)COc1cc(F)cc(-c2ccc(C(=O)NS(=O)(=O)c3cccc(N)n3)c(N3CCCC4CC43)n2)c1` (stereo not shown) [Compound 2376, N-[(6-amino-2-pyridyl)sulfonyl]-2-(5-azabicyclo[4.1.0]heptan-5-yl)-6-(3-fluoro-5-isobutoxy-phenyl)pyridine-3-carboxamide], under setting [1], the EC30 is below 3 µM. In the case of `CC(C)(C)c1ccc(C(=O)NS(=O)(=O)c2cccc(N)n2)c(N2CCC(CC3CC3)C2(C)C)n1` (stereo not shown) [Compound 2242, N-[(6-amino-2-pyridyl)sulfonyl]-6-tert-butyl-2-[3-(cyclopropylmethyl)-2,2-dimethyl-pyrrolidin-1-yl]pyridine-3-carboxamide], the EC30 under setting [1] is below 3 µM.

As to `Cc1ccc(-c2ccc(C(=O)NS(=O)(=O)c3cccnc3N)c(N3C[C@@H](C)CC3(C)C)n2)cc1C` [Compound 2017, N-[(2-amino-3-pyridyl)sulfonyl]-6-(3,4-dimethylphenyl)-2-[(4S)-2,2,4-trimethylpyrrolidin-1-yl]pyridine-3-carboxamide], the EC30 under setting [1] was below 3 µM. On the same count and under the same terms, in the case of `CC1CN(c2ncccc2C(=O)NS(=O)(=O)c2cccc(Nc3ccc(C(F)(F)F)cc3)n2)C(C)(C)C1` (stereo not shown) [Compound 2292, N—[[6-[4-(trifluoromethyl)anilino]-2-pyridyl]sulfonyl]-2-(2,2,4-trimethylpyrrolidin-1-yl)pyridine-3-carboxamide] it was below 3 µM. `Cc1cc(C)c(Cn2c(C(=O)NS(=O)(=O)c3cccc(N)c3)cc3c(Cl)cccc32)c(C)c1` [Compound 362, N-(3-aminophenyl)sulfonyl-4-chloro-1-[(2,4,6-trimethylphenyl)methyl]indole-2-carboxamide]: under setting [2], the EC30 result is reported as “+++ (“+++” means <3 uM)”. Still for that read-out and setting: in the case of `CC(C)(C)c1ccc(C(=O)NS(=O)(=O)c2cccc(N)n2)c(C2=CCCC2)n1` [Compound 529, N-[(6-amino-2-pyridyl)sulfonyl]-6-tert-butyl-2-(cyclopenten-1-yl)pyridine-3-carboxamide] it was “++ (“++” means between 3 uM and 10 uM)”; in that of `Cc1cc(C)c(Cn2c(C(=O)NS(=O)(=O)c3ccccc3)cc3c(F)cccc32)c(C)c1` [Compound 87, N-(benzenesulfonyl)-4-fluoro-1-[(2,4,6-trimethylphenyl)methyl]indole-2-carboxamide], “+++ (“+++” means <3 uM)”. In the case of `CC1CN(c2ncccc2C(=O)NS(=O)(=O)c2cccc(N3CCc4ccc(F)cc4C3)n2)C(C)(C)C1` (stereo not shown) [Compound 2518, N—[[6-(7-fluoro-3,4-dihydro-1H-isoquinolin-2-yl)-2-pyridyl]sulfonyl]-2-(2,2,4-trimethylpyrrolidin-1-yl)pyridine-3-carboxamide], the EC30 under setting [1] was below 3 µM.

These data come from patent US10758534B2 (Vertex Pharmaceuticals Incorporated, priority 2014, dated 2020).
